According to patent US10351586B2, “Cytidine derivative dimers and applications thereof” (CHANGZHOU FANGYUAN PHARMACEUTICAL CO., LTD, priority 2014, dated 2019):

What was measured:
[1] = test system: HCT-116 human colon cancer cells; experiment: Colony formation inhibition test on HCT-116 human colon cancer cells; format: cell-based
Method: 1. The colony formation inhibition test was used to evaluate the effect of four exemplary candidate compounds (D1, D2, D3, and D4) having concentrations of 50 nM, 150 nM and 450 nM on inhibiting cell proliferation of HCT-116 human colon cancer cells line.
2. Experiment material includes cell lines. HCT-116 human colon cancer cell line was purchased from the Chinese Academy of Sciences Shanghai Cell Resource Center, Cat # TCHu 99.
3. Reagent preparation includes HCT-116 human colon cancer cell culture medium, e.g., Dulbecco's Modified Eagle's medium (DMEM) medium with 10% fetal bovine serum (FBS). Compound solutions were prepared by dissolving and diluting the above synthesized compounds in dimethyl sulfoxide (DMSO) to a final concentration of about 100 μM.
Cell staining solution was prepared including 0.5% crystal violet solution prepared using absolute or anhydrous ethanol, and stored in dark. Before staining, the solution was mixed with phosphate buffered saline (PBS) buffer solution by volume ratio of 1:4 as the cell staining solution.
4. Cell culture: cells in logarithmic growth phase were collected, counted, and resuspended in complete culture medium. The cell concentration was adjusted to an appropriate concentration, 6-well culture plates were seeded, with about 300 cells and 1.8 mL of culture medium in each well. Cells were incubated for about 5 hours in an incubator at about 37° C. and about 100% relative humidity and under 5% CO2.
5. Cell colony formation inhibition test and data processing were performed including, for example, (a)-(i) as follows.
(a) Cells in logarithmic growth phase were collected and counted. The cells were re-suspended in culture medium containing 5% FBS, and counted. Six-well plates were seeded according to a rate of 300 cells per well. Cells were incubated for about 5 hours in an incubator at about 37° C. with 100% relative humidity and under 5% CO2.
(b) The compounds were diluted with culture medium (containing 5% FBS) to be concentrations of about 0.5 μM, 1.5 μM and 4.5 μM. Adding the compounds to cells in 200 μL per well, the final concentrations of the compounds were about 50 nM, 150 nM and 450 nM. Each concentration point was repeatedly tested for three times.
(c) Cells were incubated for about 72 hours in an incubator at 37° C. with 100% relative humidity and under 5% CO2. (d) The culture medium from the plates (the culture medium containing the compound(s) was aspirated. The plates were rinsed with Hank's Balance Salt Solution (HBSS) twice, and replaced with fresh culture medium (DMEM medium with 15% FBS).
(e) Cells were incubated for about 7-10 days in an incubator at about 37° C. and 100% relative humidity and under 5% CO2, until the formation of visible cloned plaques. (f) The culture medium was aspirated from the plates. The plates were rinsed twice with PBS solution. (g) The residual PBS was absorbed and removed, and ethanol was added at 1 mL per plate, fixing for 30 minutes.
(h) Ethanol was absorbed and removed, and cell staining solution was added, stained for 3 minutes. (i) The staining solution was aspirated. After rinsing three times with PBS, the cells were counted.
Data processing was performed. Cloning formation efficiency=[As/Ac]×100%; and colony formation inhibition rate=1−cloning formation efficiency, where As denotes number of cell colonies in compound-treated group (cells+compounds to be tested), and Ac denotes number of cell colonies in negative control (without treating with compound) (cells+1% DMSO).

[2] = Body weight / toxicity of a single intraperitoneal injection in HCT-116 colon tumor-bearing nude mice; details: D3 350 mg/kg, D4 300 mg/kg; for Average rate of weight change of the animals / Average weight of the animals: single IP injection (QD×1), D1 and D2 400 mg/kg; for Average weight of the animals: Mean±SEM
Method: Corresponding test substance was weighed and put into a 5 mL glass tube. The test substance was dissolved in ethanol under the stirring by a 5 mm magnetic stirrer. After a complete dissolution, Cremophor EL was added with continuous stirring. Immediately prior to the user of the test substance, the labeled amount of physiological saline was added and stirred.
Animal experiments were performed. The animals were female Balb/c nude mice at specific pathogen free (SPF) level and were supplied from Shanghai Sippr/BK Lab Animal Ltd. (Shanghai, China). […] These animals were at the age of about 7 weeks to about 9 weeks at the beginning of the experiments and had the weight of about 18 grams to about 22 grams at the beginning of the experiment. The animals had acclimatization duration of about 5 days to about 7 days. Animals were numbered using their tail number. The animal room was maintained at about 23±2° C., 40%-70% humidity, with alternating light and dark every 12 hours.
4.2 Animal inoculation and grouping were performed. Under aseptic conditions, each nude mice was injected with 0.1 mL cell suspension into the right hind leg subcutaneously (3×10^6 cell/mouse). When the size of the tumor grew to have a volume of about 60-150 mm^3, nude mice with a similar tumor size and a desirable shape (e.g., with substantially same shape such as a substantially spherical shape, without having irregular shapes or multiple tumors grouped together) were selected and grouped. In the experiment, there were six mice in each group.
The mice in control group were injected with a mixed solution including ethanol, Cremophor EL and normal saline at a ratio of 5:5:90.
The mice were weighed 3 times every week.
4.4 Clinical symptoms were provided. All clinical symptoms of each animal were recorded at the beginning of the experiments and during the experiments. The observation was performed at the same time every day.
After administration of the test substance, when the weight reduction was >20%, when the animal was dying, or when the tumor volume exceeds about 2800 mm^3, the animal were euthanized by applying CO2. The tumor was separated and weighed, an autopsy was performed, and visual inspection was conducted and recorded on whether there were pathological changes in the organs.

For `O=C(CCCC(=O)OC[C@H]1O[C@@H](n2ccc(NC(=O)OCc3ccccc3)nc2=O)C(F)(F)[C@@H]1O)OC[C@H]1O[C@@H](n2ccc(NC(=O)OCc3ccccc3)nc2=O)C(F)(F)[C@@H]1O` [Compound D3, 1,5-di-[4-N-(benzyloxycarbonyl)-2′-deoxy-2′,2′-difluoro-cytidine]glutarate], the “Number of cell clones on HCT-116, mean” value ([1]; 50 nM, 72 h treatment, then 7-10 days) was 237, the “Number of cell clones on HCT-116, mean” value ([1]; 150 nM, 72 h treatment, then 7-10 days) was 20 and the “Number of cell clones on HCT-116, mean” value ([1]; 450 nM, 72 h treatment, then 7-10 days) was 4. It also gave an inhibition at 0.05 µM ([1]; Homo sapiens, HCT-116, 50 nM, 72 h treatment, then 7-10 days, read-out: % inhibition (colony formation inhibition rate)) of 1.66%, an inhibition at 0.15 µM ([1]; Homo sapiens, HCT-116, 150 nM, 72 h treatment, then 7-10 days, read-out: % inhibition (colony formation inhibition rate)) of 91.7% and an inhibition at 0.45 µM ([1]; Homo sapiens, HCT-116, 450 nM, 72 h treatment, then 7-10 days, read-out: % inhibition (colony formation inhibition rate)) of 98.3%. For the same compound, the IC50 ([1]; Homo sapiens, HCT-116 cells, dose-response 50, 150, 450 nM, read-out: IC50 value (colony formation inhibition, FIG. 7)) was about 99.8 nM, the “Average rate of weight change of the animals” value ([2]; Day 0) was 0.00% and the “Average weight of the animals” value ([2]; Day 0) was 19.95 ± 0.09 g. The “Average rate of weight change of the animals” value ([2]; Day 1) was −3.59 ± 0.66%, the “Average weight of the animals” value ([2]; Day 1) was 19.23 ± 0.31 g and the “Average rate of weight change of the animals” value ([2]; Day 2) was −11.25 ± 0.96 %. The “Average weight of the animals” value ([2]; Day 2) was 17.70 ± 0.26 g, the “Average rate of weight change of the animals” value ([2]; Day 4) was −8.10 ± 2.84% and the “Average weight of the animals” value ([2]; Day 4) was 18.24 ± 0.58 g. For the same compound, the “Average rate of weight change of the animals” value ([2]; Day 7) was −1.68 ± 2.50%, the “Average weight of the animals” value ([2]; Day 7) was 19.51 ± 0.48 g and the “Average rate of weight change of the animals” value ([2]; Day 9) was 4.50 ± 1.93 %. The “Average weight of the animals” value ([2]; Day 9) was 20.74 ± 0.38 g, the “Average rate of weight change of the animals” value ([2]; Day 11) was 6.38 ± 1.68 % and the “Average weight of the animals” value ([2]; Day 11) was 21.12 ± 0.41 g. The “Average rate of weight change of the animals” value ([2]; Day 14) was 7.12 ± 1.19 %, the “Average weight of the animals” value ([2]; Day 14) was 21.26 ± 0.21 g and the “Average rate of weight change of the animals” value ([2]; Day 16) was 10.78 ± 0.88 %. The “Average weight of the animals” value ([2]; Day 16) was 22.00 ± 0.40 g, the “Average rate of weight change of the animals” value ([2]; Day 18) was 13.71 ± 0.63 % and the “Average weight of the animals” value ([2]; Day 18) was 22.58 ± 0.38 g. For the same compound, the “Average rate of weight change of the animals” value ([2]; Day 21) was 10.72 ± 1.6 %, the “Average weight of the animals” value ([2]; Day 21) was 21.98 ± 0.41 g and the “Average rate of weight change of the animals” value ([2]; Day 23) was 13.08 ± 2.31 %. For the same compound, the “Average weight of the animals” value ([2]; Day 23) was 22.44 ± 0.41 g, the “Average rate of weight change of the animals” value ([2]; Day 25) was 13.34 ± 2.34 % and the “Average weight of the animals” value ([2]; Day 25) was 22.50 ± 0.53 g. For the same compound, the “Average rate of weight change of the animals” value ([2]; Day 28) was 11.44 ± 2.29 %, the “Average weight of the animals” value ([2]; Day 28) was 22.12 ± 0.48 g and the “Average rate of weight change of the animals” value ([2]; Day 30) was 15.37 ± 2.93%. For the same compound, the “Average weight of the animals” value ([2]; Day 30) was 22.90 ± 0.60 g and the “Toxicity in tumor-bearing mice (in words)” value ([2]; single IP injection, D2 400 mg/kg, judged from body weight versus control) was “no toxicity”.
